Where a name gives a salt, the structure may show the parent alone.

As a reminder, the melting point is the temperature, or range, at which the solid turns liquid. As to `CN(C)CCCNC(=O)c1cccc(-c2nnc(CSCCOc3ccccc3)o2)c1` [Example 62, N-(3-dimethylamino-propyl)-3-[5-(2-phenoxy-ethylsulfanylmethyl)-[1,3,4]oxadiazol-2-yl]-benzamide], the melting point was in the range of 88 to 90 °C.

Turning to `CN(C)CCNc1ccc(-c2nnc(CSCCOc3ccccc3)o2)cn1` [Example 258, N,N-dimethyl-M-{5-[5-(2-phenoxy-ethylsulfanylmethyl)-[1,3,4]oxadiazol-2-yl]-pyridin-2-yl}-ethane-1,2-diamine], the melting point was in the range of 97 to 98 °C.

For the compound `CN(C)CCCCNC(=O)c1ccccc1-c1nnc(CSCCOc2ccccc2)o1` [Example 63, N-(4-dimethylamino-butyl)-2-[5-(2-phenoxy-ethylsulfanylmethyl)-[1,3,4]oxadiazol-2-yl]-benzamide], the melting point was 62 to 65 °C.

Take `c1ccc(OCCSCc2nnc(-c3ccc(OCCCN4CCCCCC4)cc3)o2)cc1` [Example 83, 1-(3-{4-[5-(2-phenoxy-ethylsulfanylmethyl)-[1,3,4]oxadiazol-2-yl]-phenoxy}-propyl)-azepane]: the melting point turned out to be 50 °C.

For `CN(C)CCCOc1ccc(-c2nnc(CCOCCOc3ccccc3)o2)cc1` (as salt: oxalate) [Example 215, Dimethyl-[3-(4-{5-[2-(2-phenxoyethoxy)ethyl]-[1,3,4]oxadiazol-2-yl}phenoxy)propyl]amine], the melting point was 116 to 118 °C.

In turn, `O=C(NCCN1CCCC1)Nc1ccc(-c2cnc(COCc3cc4ccccc4o3)o2)cc1` [Example 255, 1-{4-[2-(Benzofuran-2-ylmethoxymethyl)-oxazol-5-yl]-phenyl}-3-(2-pyrrolidin-1-yl-ethyl)-urea] came in with a melting point of 124 to 126 °C.

In turn, `CN(C)CCCOc1ccc(-c2nnc(CSCCOc3ccccc3)o2)cn1` [Example 288, dimethyl-(3-{5-[5-(2-phenoxy-ethylsulfanylmethyl)-[1,3,4]oxadiazol-2-yl]-pyridin-2-yloxy}-propyl)-amine] showed a melting point of 69 to 70 °C.

As for `CN(C)CCCOc1c(Cl)cc(-c2nnc(CSCCOc3ccccc3)o2)cc1Cl.O=C(O)/C=C/C(=O)O` [Example 283, (3-{2,6-dichloro-4-[5-(2-phenoxy-ethylsulfanylmethyl)-[1,3,4]oxadiazol-2-yl]-phenoxy}-propyl)-dimethyl-amine; fumaric acid salt], the melting point lay within 95 to 99 °C.

In the case of `CN(C)CCCCCNC(=O)c1ccc(-c2nnc(CSCCOc3ccccc3)o2)cc1` [Example 56, N-(5-dimethylaminopentyl)-4-[5-(2-phenoxyethylsulfanylmethyl)-[1,3,4]oxadiazol-2-yl]-benzamide], the melting point lay in the range of 83 to 89 °C.

Compound `CN(C)CCCOc1ccc(-c2nnc(CSCCOc3cccc(OC(F)(F)F)c3)o2)cc1` [Example 276, [3-(4-{5-[2-(3-trifluoromethoxy-phenoxy)-ethylsulfanylmethyl]-[1,3,4]oxadiazol-2-yl}-phenoxy)-propyl]-dimethyl-amine] returned a melting point of 46 to 46.5 °C.

`CC(C)N(CCCCOc1ccc(-c2nnc(CSCCOc3ccccc3)o2)cc1)C(C)C` [Example 262, diisopropyl-(4-{4-[5-(2-phenoxy-ethylsulfanylmethyl)-[1,3,4]oxadiazol-2-yl]-phenoxy}-butyl)-amine]: the melting point is 42 to 44 °C.

Regarding `c1ccc(OCCSCc2nnc(-c3ccc(OCc4cccnc4)cc3)o2)cc1` [Example 100, 3-{4-[5-(2-phenoxy-ethylsulfanylmethyl)-[1,3,4]oxadiazol-2-yl]-phenoxymethyl}-pyridine], the melting point was 111 to 112 °C.

In turn, `c1ccc(OCCSCc2nnc(-c3ccc(OCCCCN4CCCCCC4)cc3)o2)cc1` [Example 89, 1-(4-{4-[5-(2-phenoxy-ethylsulfanylmethyl)-[1,3,4]oxadiazol-2-yl]-phenoxy}-butyl)-azepane] showed a melting point of 35 to 38 °C.

In the case of `CC(C)N(CCCOc1ccc(-c2nnc(CSCCOc3ccccc3)o2)cc1)C(C)C` [Example 261, diisopropyl-(3-{4-[5-(2-phenoxy-ethylsulfanylmethyl)-[1,3,4]oxadiazol-2-yl]-phenoxy}-propyl)-amine], the melting point lay within 30 to 33 °C.

In turn, `O=C(Nc1ccc(-c2nnc(CSCCOc3ccccc3)o2)cc1)N1CCCC1` [Example 103, pyrrolidine-1-carboxylic acid {4-[5-(2-phenoxy-ethylsulfanylmethyl)-[1,3,4]oxadiazol-2-yl]-phenyl}-amide] returned a melting point of 184 to 185 °C.

In turn, `CN(C)CCCOc1ccc(-c2nnc(CCc3ccc4ccccc4c3)o2)cc1` (as salt: hydrochloride) [Example 205, Dimethyl-{3-[4-(5-naphthalene-2-ylethyl-[1,3,4]oxadiazol-2-yl)phenoxy]propyl}amine] displayed a melting point of 208 to 210 °C.

`c1ccc(OCCSCc2nnc(-c3ccc(OCCN4CCCC4)cc3)o2)cc1` [Example 76, 2-(2-phenoxy-ethylsulfanylmethyl)-5-[4-(2-pyrrolidin-1-yl-ethoxy)-phenyl]-[1,3,4]oxadiazole] showed a melting point of 65 °C.

On to `CCN(CC)CCOc1ccc(-c2nnc(CSCCOc3ccccc3)o2)cc1` [Example 85, diethyl-(2-{4-[5-(2-phenoxy-ethylsulfanylmethyl)-[1,3,4]oxadiazol-2-yl]-phenoxy}-ethyl)-amine], for which the melting point lay within 32 to 35 °C.

Consider `CN(C)CCCOc1ccc(-c2nnc(CSCCOc3ccc4ccccc4c3)o2)cc1` [Example 279, [3-(4-{5-[2-(2-naphthoxy)-ethylsulfanylmethyl]-[1,3,4]oxadiazol-2-yl}-phenoxy)-propyl]-dimethyl-amine], for which the melting point fell in the range of 97 to 98 °C.

For `CN(C)CCCOc1ccc(-c2nnc(CSCCOCc3ccccc3)o2)cc1` (as salt: maleate) [Example 282, (3-{4-[5-(2-phenylmethoxy-ethylsulfanylmethyl)-[1,3,4]oxadiazol-2-yl]-phenoxy}-propyl)-dimethyl-amine], the melting point was in the range of 71.5 to 72 °C.

With `CN(C)CCNC(=O)c1ccccc1-c1nnc(CSCCOc2ccccc2)o1` [Example 64, N-(2-dimethylamino-ethyl)-2-[5-(2-phenoxy-ethylsulfanylmethyl)-[1,3,4]oxadiazol-2-yl]-benzamide], the melting point is 80 to 85 °C.

`CCN(CC)CCCCOc1ccc(-c2nnc(CSCCOc3ccccc3)o2)cc1` [Example 93, diethyl-(4-{4-[5-(2-phenoxy-ethylsulfanylmethyl)-[1,3,4]oxadiazol-2-yl]-phenoxy}-butyl)-amine] registered a melting point of 35 to 38 °C.

Compound `CN(C)CCCNC(=O)c1ccccc1-c1nnc(CSCCOc2ccccc2)o1` [Example 65, N-(3-dimethylamino-propyl)-2-[5-(2-phenoxy-ethylsulfanylmethyl)-[1,3,4]oxadiazol-2-yl]-benzamide] yielded a melting point of 60 to 65 °C.

`CN(C)CCCNC(=O)c1ccc(-c2nnc(CSCCCCOc3ccccc3)o2)cc1` [Example 48, N-(3-dimethylaminopropyl)-4-[5-(4-phenoxybutylsulfanylmethyl)-[1,3,4]oxadiazol-2-yl]-benzamide] registered a melting point of 87 to 93 °C.

In turn, `NC(=O)Nc1ccc(-c2nnc(CSCCOc3ccccc3)o2)cc1` [Example 101, {4-[5-(2-phenoxy-ethylsulfanylmethyl)-[1,3,4]oxadiazol-2-yl]-phenyl}-urea] returned a melting point of more than 220 °C.

Consider `CC(C)N(CCOc1ccc(-c2nnc(CSCCOc3ccccc3)o2)cc1)C(C)C` [Example 73, diisopropyl-(2-{4-[5-(2-phenoxy-ethylsulfanylmethyl)-[1,3,4]oxadiazol-2-yl]-phenoxy}-ethyl)-amine], for which the melting point lay within 42 to 45 °C.

The compound `CN1CCCC(COc2ccc(-c3nnc(CSCCOc4ccccc4)o3)cc2)C1.O=C(O)/C=C\C(=O)O` (centres unmarked) [Example 290, 1-methyl-3-{4-[5-(2-phenoxy-ethylsulfanylmethyl)-[1,3,4]oxadiazol-2-yl]-phenoxymethyl}-piperidine; maleic acid salt] had a melting point of 115 to 116 °C.

Take `CN1CCCC(Oc2ccc(-c3nnc(CSCCOc4ccccc4)o3)cc2)CC1` (centres unmarked) [Example 97, 1-methyl-4-{4-[5-(2-phenoxy-ethylsulfanylmethyl)-[1,3,4]oxadiazol-2-yl]-phenoxy}-azepane]: the melting point fell in the range of 60 to 61 °C.

`CNCCCOc1ccc(-c2nnc(CSCCOc3ccccc3)o2)cc1` [Example 77, methyl-(3-{4-[5-(2-phenoxy-ethylsulfanylmethyl)-[1,3,4]oxadiazol-2-yl]-phenoxy}-propyl)-amine] had a melting point of 40 to 44 °C.

For `c1ccc(OCCSCc2nnc(-c3ccc(OCCN4CCSCC4)cc3)o2)cc1` [Example 90, 4-(2-{4-[5-(2-phenoxy-ethylsulfanylmethyl)-[1,3,4]oxadiazol-2-yl]-phenoxy}-ethyl)-thiomorpholine], the melting point came out at 60 °C.

The compound `CN(C)CCOc1ccc(-c2nnc(CSCCOc3ccccc3)o2)cc1` [Example 66, dimethyl-(2-{4-[5-(2-phenoxy-ethylsulfanylmethyl)-[1,3,4]oxadiazol-2-yl]-phenoxy}-ethyl)-amine] had a melting point of 62 to 64 °C.

`CN1CCCC1CCOc1ccc(-c2nnc(CSCCOc3ccccc3)o2)cc1` (centres unmarked) [Example 96, 2-{4-[2-(1-methyl-pyrrolidin-2-yl)-ethoxy]-phenyl}-5-(2-phenoxy-ethylsulfanylmethyl)-[1,3,4]oxadiazole] came in with a melting point of 46 to 50 °C.

Consider `CN(C)CCCOc1ccc(-c2nnc(Cc3ccc(Oc4ccccc4)cc3)o2)cc1.O=C(O)C(=O)O` [Example 269, Dimethyl-(3-{4-[5-(4-phenoxy-benzyl)-[1,3,4]oxadiazol-2-yl]-phenoxy}-propyl)-amine, oxalic acid salt], for which the melting point lay in the range of 156 to 158 °C.

`CCN(CC)CCCOc1ccc(-c2nnc(CSCCOc3ccccc3)o2)cc1` [Example 78, diethyl-(3-{4-[5-(2-phenoxy-ethylsulfanylmethyl)-[1,3,4]oxadiazol-2-yl]-phenoxy}-propyl)-amine] had a melting point of 27 to 31 °C.

Turning to `CN(C)CCNC(=S)Nc1ccc(-c2nnc(CSCCOc3ccccc3)o2)cc1` [Example 117, 1-(2-dimethylamino-ethyl)-3-{4-[5-(2-phenoxy-ethylsulfanylmethyl)-[1,3,4]oxadiazol-2-yl]-phenyl}-thiourea], the melting point fell in the range of 155 to 158 °C.
